{"source": "patent US8609359B2", "about": "“Methods for determining the concentration of gamma-hydroxy butyric acid (GHB) in a sample” (Bühlmann Laboratories AG, priority 2009, dated 2013)", "origin": "cited, not measured here", "key": {"[1]": {"details": "in 1 ml of water"}, "[2]": {"details": "when consumed with food"}, "GHB receptor": {"tested_on": "GHB receptor", "details": "for GHB-appropriate responding: animals"}, "GABAB receptor": {"molecular_target": "GABAB receptor (Homo sapiens, UniProt Q9UBS5)", "sequence (Q9UBS5 15-961 limits assumed)": "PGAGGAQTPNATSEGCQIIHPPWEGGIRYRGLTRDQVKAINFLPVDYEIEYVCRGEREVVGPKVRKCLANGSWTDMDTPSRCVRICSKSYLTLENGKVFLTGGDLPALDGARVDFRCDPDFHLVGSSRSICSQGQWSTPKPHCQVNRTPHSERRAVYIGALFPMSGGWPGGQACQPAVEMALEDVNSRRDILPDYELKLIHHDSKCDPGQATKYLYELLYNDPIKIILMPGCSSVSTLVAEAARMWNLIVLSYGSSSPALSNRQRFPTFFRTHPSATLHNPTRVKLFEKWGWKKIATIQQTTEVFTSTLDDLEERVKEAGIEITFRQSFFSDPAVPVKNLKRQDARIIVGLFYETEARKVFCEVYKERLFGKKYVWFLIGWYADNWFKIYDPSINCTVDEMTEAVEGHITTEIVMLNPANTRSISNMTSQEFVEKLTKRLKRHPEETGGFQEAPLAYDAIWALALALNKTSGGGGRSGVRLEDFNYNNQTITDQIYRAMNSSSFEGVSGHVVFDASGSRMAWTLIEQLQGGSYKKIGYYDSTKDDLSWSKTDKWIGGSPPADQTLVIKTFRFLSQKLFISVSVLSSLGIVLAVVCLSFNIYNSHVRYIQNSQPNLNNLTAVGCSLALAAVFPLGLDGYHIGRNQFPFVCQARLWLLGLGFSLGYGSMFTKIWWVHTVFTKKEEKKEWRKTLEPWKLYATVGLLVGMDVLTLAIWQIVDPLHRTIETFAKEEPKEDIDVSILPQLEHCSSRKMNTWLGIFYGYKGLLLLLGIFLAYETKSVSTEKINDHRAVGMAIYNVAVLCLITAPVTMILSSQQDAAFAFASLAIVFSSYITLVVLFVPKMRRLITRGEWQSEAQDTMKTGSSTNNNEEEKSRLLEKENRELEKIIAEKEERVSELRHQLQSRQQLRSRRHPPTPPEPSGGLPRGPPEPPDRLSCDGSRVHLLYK", "sequence (O75899 42-941 partner)": "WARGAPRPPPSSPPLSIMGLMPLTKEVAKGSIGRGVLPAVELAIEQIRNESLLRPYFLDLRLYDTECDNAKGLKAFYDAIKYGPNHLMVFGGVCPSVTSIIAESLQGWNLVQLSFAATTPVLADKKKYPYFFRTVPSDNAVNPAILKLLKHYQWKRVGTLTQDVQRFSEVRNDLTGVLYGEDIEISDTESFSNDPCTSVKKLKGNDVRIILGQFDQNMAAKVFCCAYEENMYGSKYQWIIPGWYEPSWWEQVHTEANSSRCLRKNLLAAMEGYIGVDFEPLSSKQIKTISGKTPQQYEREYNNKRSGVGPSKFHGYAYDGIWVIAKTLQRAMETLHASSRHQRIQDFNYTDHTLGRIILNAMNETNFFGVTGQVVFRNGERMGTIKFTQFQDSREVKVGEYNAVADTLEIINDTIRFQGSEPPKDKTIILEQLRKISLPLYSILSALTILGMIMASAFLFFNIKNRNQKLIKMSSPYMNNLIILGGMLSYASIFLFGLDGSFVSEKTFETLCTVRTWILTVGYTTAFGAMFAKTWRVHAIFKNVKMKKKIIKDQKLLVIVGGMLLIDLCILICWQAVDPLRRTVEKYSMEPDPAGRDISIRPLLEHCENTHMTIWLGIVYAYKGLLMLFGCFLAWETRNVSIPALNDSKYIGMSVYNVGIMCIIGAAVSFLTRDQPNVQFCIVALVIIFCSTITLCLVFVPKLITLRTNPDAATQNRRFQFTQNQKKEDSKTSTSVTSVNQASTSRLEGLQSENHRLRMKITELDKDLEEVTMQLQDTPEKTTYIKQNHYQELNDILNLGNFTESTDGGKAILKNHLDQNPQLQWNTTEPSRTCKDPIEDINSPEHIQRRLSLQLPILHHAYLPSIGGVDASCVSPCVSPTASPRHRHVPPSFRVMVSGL"}, "[3]": {"details": "effects can resolve quite suddenly"}}}
{"smiles": "O=C([O-])CCCO.[Na+]", "note": "[sodium GHB]", "values": [{"measurement": "amount of sodium GHB that can be dissolved", "setting": "[1]", "result": "More than 1 g"}, {"measurement": "bioavailability", "setting": "[2]", "result": "considerably reduced"}]}
{"smiles": "O=C(O)/C=C/CO", "note": "[trans-4-hydroxycrotonic acid]", "values": [{"measurement": "GHB-appropriate responding", "setting": "GHB receptor", "result": "do not produce GHB-appropriate responding"}]}
{"smiles": "O=C(O)CCCO", "note": "[GHB, 4-hydroxybutanoic acid]", "values": [{"measurement": "affinity for GABAB receptor", "setting": "GABAB receptor", "result": "relatively weak affinity"}, {"measurement": "duration of the effects", "setting": "[3]", "result": "about four"}]}
{"smiles": "O=C(O)CCC(O)Cc1ccc(Cl)cc1", "note": "(stereo not shown) [4-(p-chlorobenzyl)-GHB]", "values": [{"measurement": "convulsions in animals", "setting": "GHB receptor", "result": "cause convulsions in animals"}, {"measurement": "GHB-appropriate responding", "setting": "GHB receptor", "result": "do not produce GHB-appropriate responding"}]}
